Experimental data published in patent US9745297B2, “Compounds as modulators of RORC” (Boehringer Ingelheim International GmbH, priority 2013, dated 2017).
pIC50: −log10 of the molar value.

Target: T1, RORγt (Homo sapiens, UniProt P51449)
T1 construct: expressed in transfected cells
T1 sequence (P51449 269-508 limits assumed): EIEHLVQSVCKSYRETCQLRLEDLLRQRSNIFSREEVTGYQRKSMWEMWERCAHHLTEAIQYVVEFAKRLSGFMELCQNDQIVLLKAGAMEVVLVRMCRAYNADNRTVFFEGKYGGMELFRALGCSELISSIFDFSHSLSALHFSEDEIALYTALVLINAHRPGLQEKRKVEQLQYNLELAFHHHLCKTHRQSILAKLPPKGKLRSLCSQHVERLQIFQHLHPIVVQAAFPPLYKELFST
Experiment: RGA Assay: nuclear receptor transactivation assay, RORγt transactivation of a luciferase reporter
Type: cell-based
Conditions: transiently transfected HEK 293 cells (pGL4.3 luc2P/GAL4UAS, pBIND Gal4DBD hRORC LBD), 20-24 hours incubation, luciferase readout
Method: A nuclear receptor transactivation assay was performed to quantitate the ability of test compounds to inhibit RORγt transactivation of a luciferase reporter. A similar assay is described in: Khan et al., Bioorganic & Medicinal Chemistry Letters 23 (2013), 532-536. The system uses transiently transfected HEK 293 cells cotransfected with two plasmids (pGL4.3, luc2P/GAL4UAS/Hygro, and pBIND, Ga14DBD hRORC LBD1-3). The positive control is co-transiently transfected with both plasmids, and the negative control contains the pGL4.3 promoter sequence. Assays were assembled in 384 well plates where transiently transfected cells and test compound at varying concentrations were incubated for 20-24 hours. The next day, assays plates are taken out and equillibrated at RT for 20-30 minutes. Bright-Glo™ Luciferase Assay System is used to detect Luciferase production. After addition of Bright GLO detection reagent, the plates were incubated at RT for 20 minutes. The plates were read on an Envision plate reader to measure luminescence signal. The RLU signal is converted to POC relative to control and blank wells.
Compound Dilution Buffer:
Bright Glo Luciferase Assay System: Promega #E2620
Thaw lysis buffer provided in kit, add 100 mL lysis buffer to substrate powder.

For CNS(=O)(=O)c1ccc(CNC(=O)N2CC3(CCCC3)c3nc(-c4ccc(F)cc4C)ccc32)cc1 [Example 1], the pIC50 was 5.80.
Molecule Cc1cc(O)ccc1-c1ccc2c(n1)C(C)(C)CN2C(=O)NCc1ccc(C#N)cc1 [Example 2] has a pIC50 of less than 4.52.
In the case of COc1cc(C)c(-c2ccc3c(n2)C(C)(C)CN3C(=O)NCc2ccc(C#N)cc2)cn1 [Example 3], the pIC50 was less than 4.52.
COc1ccc(-c2ccc3c(n2)C(C)(C)CN3C(=O)NCc2ccc(C#N)cc2)c(C(F)(F)F)c1 [Example 4] was tested, and the pIC50 was 4.92.
Cc1nc(N2CCOCC2)ccc1-c1ccc2c(n1)C1(CCCC1)CN2C(=O)NCc1ccc(S(C)(=O)=O)cc1 [Example 5] showed a pIC50 of less than 4.52.
COC1CCCN(c2ccc(-c3ccc4c(n3)C3(CCCC3)CN4C(=O)NCc3ccc(S(C)(=O)=O)cc3)c(C)n2)C1 (stereo not drawn) [Example 6] gave a pIC50 of 4.62.
COC1CCN(c2ccc(-c3ccc4c(n3)C3(CCCC3)CN4C(=O)NCc3ccc(S(C)(=O)=O)cc3)c(C)n2)CC1 [Example 7] showed a pIC50 of less than 4.52.
CNC(=O)c1ccc(-c2ccc3c(n2)C2(CCCC2)CN3C(=O)NCc2ccc(S(C)(=O)=O)cc2)c(C)c1 [Example 8] showed a pIC50 of less than 4.52.
CCNC(=O)c1ccc(-c2ccc3c(n2)C2(CCCC2)CN3C(=O)NCc2ccc(S(C)(=O)=O)cc2)c(C)c1 [Example 9] was tested, and the pIC50 was 5.37.
With CCS(=O)(=O)c1ccc(CNC(=O)N2CC3(CCCC3)c3nc(-c4ccc(C#N)cc4C)ccc32)cc1 [Example 10] the pIC50 was 4.96.
CCS(=O)(=O)c1ccc(CNC(=O)N2CC3(CCCC3)c3nc(-c4ccc(O)cc4C(F)(F)F)ccc32)cc1 [Example 11] showed a pIC50 of 6.96.
CCS(=O)(=O)c1ccc(CNC(=O)N2CC3(CCCC3)c3nc(-c4ccc(OC)cc4C(F)(F)F)ccc32)cc1 [Example 12] was tested, and the pIC50 was 6.32.
With CCS(=O)(=O)c1ccc(CNC(=O)N2CC3(CCCC3)c3nc(-c4cnc(OC)cc4C)ccc32)cc1 [Example 13] the pIC50 was 5.28.
Work on CCS(=O)(=O)c1ccc(CNC(=O)N2CC3(CCCC3)c3nc(-c4ccc(F)cc4C)ccc32)cc1 [Example 14] yielded a pIC50 of 5.47.
CCS(=O)(=O)c1ccc(CNC(=O)N2CC3(CCCC3)c3nc(-c4ccc(O)cc4C)ccc32)cc1 [Example 15] showed a pIC50 of 6.32.
CC1(C)CN(C(=O)NCc2ccc(S(C)(=O)=O)cc2)c2ccc(Br)nc21 [Example 16] was tested, and the pIC50 was less than 4.52.
CNS(=O)(=O)c1ccc(CNC(=O)N2CC(C)(C)c3nc(Br)ccc32)cc1 [Example 17] gave a pIC50 of less than 4.52.
COc1ccc(-c2ccc3c(n2)C(C)(C)CN3C(=O)NCc2ccc(S(C)(=O)=O)cc2)c(C(F)(F)F)c1 [Example 18] was tested, and the pIC50 was 5.47.
COc1cc(C)c(-c2ccc3c(n2)C(C)(C)CN3C(=O)NCc2ccc(S(C)(=O)=O)cc2)cn1 [Example 19] showed a pIC50 of 5.00.
Molecule CC(C)c1ncncc1-c1ccc2c(n1)C(C)(C)CN2C(=O)NCc1ccc(S(C)(=O)=O)cc1 [Example 20] has a pIC50 of 4.72.
With Cc1cc(O)ccc1-c1ccc2c(n1)C(C)(C)CN2C(=O)NCc1ccc(S(C)(=O)=O)cc1 [Example 21] the pIC50 was 4.92.
Molecule Cc1cc(F)ccc1-c1ccc2c(n1)C(C)(C)CN2C(=O)NCc1ccc(S(C)(=O)=O)cc1 [Example 22] has a pIC50 of less than 4.52.
In the case of CNS(=O)(=O)c1ccc(CNC(=O)N2CC(C)(C)c3nc(-c4ccc(OC)cc4C(F)(F)F)ccc32)cc1 [Example 23], the pIC50 was 5.74.
CCS(=O)(=O)c1ccc(CNC(=O)N2CC3(CCCC3)c3nc(-c4c(C)ncnc4C)ccc32)cc1 [Example 24] was tested, and the pIC50 was 5.23.
For CCS(=O)(=O)c1ccc(CNC(=O)N2CC3(CCCC3)c3nc(-c4cncnc4C(C)C)ccc32)cc1 [Example 25], the pIC50 was 5.92.
CCS(=O)(=O)c1ccc(CNC(=O)N2CC3(CCCC3)c3nc(-c4c(OC)ncnc4C4CC4)ccc32)cc1 [Example 26] showed a pIC50 of 6.46.
CCS(=O)(=O)c1ccc(CNC(=O)N2CC3(CCCC3)c3nc(-c4sc(OC)nc4C)ccc32)cc1 [Example 27] showed a pIC50 of 5.10.
CCS(=O)(=O)c1ccc(CNC(=O)N2CC3(CCCC3)c3nc(-c4c(C)nn(CCN(C)C)c4C)ccc32)cc1 [Example 28] gave a pIC50 of less than 4.52.
Work on CCS(=O)(=O)c1ccc(CNC(=O)N2CC3(CCCC3)c3nc(-c4c(C(C)C)n[nH]c4C)ccc32)cc1 [Example 29] yielded a pIC50 of 5.77.
With CCS(=O)(=O)c1ccc(CNC(=O)N2CC3(CCCC3)c3nc(-c4c(C)n[nH]c4C)ccc32)cc1 [Example 31] the pIC50 was less than 4.52.
CCS(=O)(=O)c1ccc(CNC(=O)N2CC3(CCCC3)c3nc(-c4sc(N)nc4C(F)(F)F)ccc32)cc1 [Example 32] showed a pIC50 of 4.77.
In the case of CCS(=O)(=O)c1ccc(CNC(=O)N2CC3(CCCC3)c3nc(-c4cnc(N(C)C)nc4C(F)(F)F)ccc32)cc1 [Example 33], the pIC50 was 5.92.
Molecule COCCOc1cc(C#N)ccc1CNC(=O)N1CC2(CCCC2)c2nc(-c3cncnc3C(C)C)ccc21 [Example 34] has a pIC50 of 4.96.
With CCS(=O)(=O)c1ccc(CNC(=O)N2CC3(CCCC3)c3nc(-c4cncnc4C(F)(F)F)ccc32)cc1 [Example 35] the pIC50 was 5.68.
Molecule CCS(=O)(=O)c1ccc(CNC(=O)N2CC3(CCCC3)c3nc(-c4c(C)nn(C)c4C)ccc32)cc1 [Example 36] has a pIC50 of 4.80.
For CCS(=O)(=O)c1ccc(CNC(=O)N2CC3(CCCC3)c3nc(-c4ncc(C)nc4C)ccc32)cc1 [Example 37], the pIC50 was less than 4.52.
With CCS(=O)(=O)c1ccc(CNC(=O)N2CC3(CCCC3)c3nc(-c4ncc(C(F)(F)F)cn4)ccc32)cc1 [Example 38] the pIC50 was less than 4.52.
Molecule CCS(=O)(=O)c1ccc(CNC(=O)N2CC3(CCCC3)c3nc(-c4nnccc4C(F)(F)F)ccc32)cc1 [Example 39] has a pIC50 of less than 4.52.
With CCS(=O)(=O)c1ccc(CNC(=O)N2CC3(CCCC3)c3nc(-c4ncc(N(C)C)nc4C4CC4)ccc32)cc1 [Example 40] the pIC50 was 5.80.
Work on CCS(=O)(=O)c1ccc(CNC(=O)N2CC3(CCCC3)c3nc(-c4nc(C)cnc4C)ccc32)cc1 [Example 41] yielded a pIC50 of less than 4.52.
For CNS(=O)(=O)c1ccc(CNC(=O)N2CC(C)(C)c3nc(-c4ccc(F)cc4C)ccc32)cc1 [Example 42], the pIC50 was 5.00.
Molecule CNS(=O)(=O)c1ccc(CNC(=O)N2CC(C)(C)c3nc(-c4ccc(O)cc4C)ccc32)cc1 [Example 43] has a pIC50 of 5.07.
Molecule CNS(=O)(=O)c1ccc(CNC(=O)N2CC(C)(C)c3nc(-c4cnc(OC)cc4C)ccc32)cc1 [Example 44] has a pIC50 of 4.74.
For CNS(=O)(=O)c1ccc(CNC(=O)N2CC(C)(C)c3nc(-c4cncnc4C(C)C)ccc32)cc1 [Example 45], the pIC50 was 5.04.
In the case of COc1ccc(-c2ccc3c(n2)C2(CCCC2)CN3C(=O)NCc2ccc(C#N)cc2)c(C(F)(F)F)c1 [Example 46], the pIC50 was 5.39.
COc1cc(C)c(-c2ccc3c(n2)C2(CCCC2)CN3C(=O)NCc2ccc(C#N)cc2)cn1 [Example 47] gave a pIC50 of 4.82.
CC1(C)CN(C(=O)NCc2ccc(S(C)(=O)=O)cc2)c2ccc(Oc3ccc(F)c(OC(F)(F)F)c3)nc21 [Example 48] gave a pIC50 of 5.18.
For CNS(=O)(=O)c1ccc(CNC(=O)N2CC(C)(C)c3nc(Oc4ccc(F)c(OC(F)(F)F)c4)ccc32)cc1 [Example 49], the pIC50 was 5.39.
In the case of Cc1cc(F)ccc1-c1ccc2c(n1)C1(CCCC1)CN2C(=O)NCc1ccc(S(C)(=O)=O)cc1 [Example 50], the pIC50 was 5.07.
With CNS(=O)(=O)c1ccc(CNC(=O)N2CC3(CCCC3)c3nc(-c4ccc(OC)cc4C(F)(F)F)ccc32)cc1 [Example 51] the pIC50 was 6.15.
Work on COc1ccc(-c2ccc3c(n2)C2(CCCC2)CN3C(=O)NCc2ccc(S(C)(=O)=O)cc2)c(C(F)(F)F)c1 [Example 52] yielded a pIC50 of 6.03.
For Cc1cc(O)ccc1-c1ccc2c(n1)C1(CCCC1)CN2C(=O)NCc1ccc(S(C)(=O)=O)cc1 [Example 54], the pIC50 was 5.85.
CNS(=O)(=O)c1ccc(CNC(=O)N2CC3(CCCC3)c3nc(-c4cncnc4C(C)C)ccc32)cc1 [Example 55] was tested, and the pIC50 was 5.96.
With CC(C)c1ncncc1-c1ccc2c(n1)C1(CCCC1)CN2C(=O)NCc1ccc(S(C)(=O)=O)cc1 [Example 56] the pIC50 was 5.80.
Molecule CNS(=O)(=O)c1ccc(CNC(=O)N2CC3(CCCC3)c3nc(-c4cnc(OC)cc4C)ccc32)cc1 [Example 57] has a pIC50 of 5.28.
Work on COc1cc(C)c(-c2ccc3c(n2)C2(CCCC2)CN3C(=O)NCc2ccc(S(C)(=O)=O)cc2)cn1 [Example 58] yielded a pIC50 of 5.10.
In the case of CS(=O)(=O)c1ccc(CNC(=O)N2CC3(CCCC3)c3nc(Oc4ccc(C(F)(F)F)nc4)ccc32)cc1 [Example 59], the pIC50 was less than 4.52.
Cc1cc(C)c(Oc2ccc3c(n2)C2(CCCC2)CN3C(=O)NCc2ccc(S(C)(=O)=O)cc2)cn1 [Example 60] showed a pIC50 of 5.07.
CNS(=O)(=O)c1ccc(CNC(=O)N2CC3(CCCC3)c3nc(Oc4cnc(C)cc4C)ccc32)cc1 [Example 61] was tested, and the pIC50 was 5.12.
CS(=O)(=O)c1ccc(CNC(=O)N2CC3(CCCC3)c3nc(Cl)ccc32)cc1 [Example 62] was tested, and the pIC50 was less than 4.52.
Work on CCS(=O)(=O)c1ccc(CNC(=O)N2CC3(CCCC3)c3nc(-c4cn5ccnc5cc4C)ccc32)cc1 [Example 63] yielded a pIC50 of less than 4.52.
For CCS(=O)(=O)c1ccc(CNC(=O)N2CC3(CCCC3)c3nc(-c4cnc(C#N)nc4C4CC4)ccc32)cc1 [Example 64], the pIC50 was 4.80.
Work on CS(=O)(=O)c1ccc(CNC(=O)N2CC3(CCCC3)c3nc(-c4cnc(C#N)nc4C4CC4)ccc32)cc1 [Example 65] yielded a pIC50 of 4.74.
